Holding throughout (format): ADME, organism-based
Series [1] is described as follows: Trough drug concentration at 12 hrs in healthy human plasma at 400 mg, po twice a day for 4 days by reverse-phase HPLC-MS method. The note with it: read-out: Cmin.
Series [2] is described as follows: Trough drug concentration at 12 hrs in healthy human plasma at 400 mg, po twice a day for 4 days coadministered with 200mg of etravirine twice a day for 4 days by reverse-phase HPLC-MS method. Particulars: read-out: Cmin.
Series [3] in a line: AUC (0 to 12 hrs) in healthy human plasma at 400 mg, po twice a day for 4 days by reverse-phase HPLC-MS method. Also on record: dose 400 mg, time < 12 hr, route oral.
A short description of series [4]: AUC (0 to 12 hrs) in healthy human plasma at 400 mg, po twice a day for 4 days coadministered with 200mg of etravirine twice a day for 4 days by reverse-phase HPLC-MS method. On the set-up: time < 12 hr, dose 400 mg, route oral.
Series [5] is described as follows: Cmax in healthy human plasma at 400 mg, po twice a day for 4 days by reverse-phase HPLC-MS method. Also on record: dose 400 mg, route oral.
Series [6] can be described thus: Cmax in healthy human plasma at 400 mg, po twice a day for 4 days coadministered with 200mg of etravirine twice a day for 4 days by reverse-phase HPLC-MS method. Also on record: dose 400 mg, route oral.
Series [7] is described as follows: Tmax in healthy human plasma at 400 mg, po twice a day for 4 days by reverse-phase HPLC-MS method.
Series [8] can be described thus: Tmax in healthy human plasma at 400 mg, po twice a day for 4 days coadministered with 200mg of etravirine twice a day for 4 days by reverse-phase HPLC-MS method.
Series [9] is described as follows: Trough drug concentration at 12 hrs in healthy human plasma at 200 mg, po twice a day for 8 days by reverse-phase HPLC-MS method. Particulars: read-out: Cmin.
The nature of series [10]: Trough drug concentration at 12 hrs in healthy human plasma at 200 mg, po twice a day for 4 days coadministered with 400 mg of raltegravir, po twice a day for 4 days by reverse-phase HPLC-MS method. Particulars: read-out: Cmin.
Series [11] concerns Homo sapiens. In words: AUC (0 to 12 hrs) in healthy human plasma at 200 mg, po twice a day for 8 days by reverse-phase HPLC-MS method. On the set-up: time < 12 hr, dose 200 mg, route oral. Particulars: in vivo.
The subject of series [12] is Homo sapiens. In words: AUC (0 to 12 hrs) in healthy human plasma at 200 mg, po twice a day for 4 days coadministered with 400 mg of raltegravir, po twice a day for 4 days by reverse-phase HPLC-MS method. Also on record: time < 12 hr, dose 200 mg, route oral. Particulars: in vivo.
Series [13] can be described thus: Cmax in healthy human plasma at 200 mg, po twice a day for 8 days by reverse-phase HPLC-MS method. Also on record: dose 200 mg, route oral.
A short description of series [14]: Cmax in healthy human plasma at 200 mg, po twice a day for 4 days coadministered with 400 mg of raltegravir, po twice a day for 4 days by reverse-phase HPLC-MS method. Also on record: dose 200 mg, route oral.
Series [15] is described as follows: Tmax in healthy human plasma at 200 mg, po twice a day for 8 days by reverse-phase HPLC-MS method.
Series [16] in a line: Tmax in healthy human plasma at 200 mg, po twice a day for 4 days coadministered with 400 mg of raltegravir, po twice a day for 4 days by reverse-phase HPLC-MS method.

In the case of `Cc1nnc(C(=O)NC(C)(C)c2nc(C(=O)NCc3ccc(F)cc3)c(O)c(=O)n2C)o1` [RALTEGRAVIR], the concentration at 12 h in series [1] came out at 216 nM; in [2], 142 nM. Further, the area under the curve (AUC) at 12 h came out at 7.01 µM·h in [3] and 6.28 µM·h in series [4]. Moreover, the values for the Cmax in series [5] and in [6] were 1740 nM and 1540 nM, respectively. In addition, the values for the Tmax in series [7] and in series [8] were 1.5 h and 3 h, respectively.
Regarding `Cc1cc(C#N)cc(C)c1Oc1nc(Nc2ccc(C#N)cc2)nc(N)c1Br` [ETRAVIRINE], the concentration at 12 h stood at 373 ng/mL in [9] and 439 ng/mL in series [10]. Further, the AUC in series [11] came to 6220 ng·h/mL; in series [12] it was 6810 ng·h/mL. The Cmax in series [13] was found to be 734 ng/mL; in series [14], 766 ng/mL. For the same compound, the Tmax in [15] and in [16] was 4 h throughout.

As usually defined, the AUC is the area under the concentration-time curve, a measure of exposure. What is called Cmax is the maximum level reached in the sampled fluid or tissue. One may read the Tmax as the time from dosing to the highest level.

Source of the values: ChEMBL document CHEMBL1275564, “Minimal pharmacokinetic interaction between the human immunodeficiency virus nonnucleoside reverse transcriptase inhibitor etravirine and the integrase inhibitor raltegravir in healthy subjects” (Antimicrob Agents Chemother, 2008).
